Holding throughout (assay): Inhibition of DPP III hydrolysis of Arg2-2NA by tynorphin
Details in all cases: substrate Arg2-2NA, from initial hydrolysis rates, eq. 1

One assay deals with T1, BtDPP III (Bacteroides thetaiotaomicron, UniProt Q8A6N1).
T1 construct: made in house; host or cells: E. coli
The assay is classed as biochemical.

A further assay has as its target T2, CaDPP III (Caldithrix abyssi, UniProt H1XW48).
T2 construct: made in house; host or cells: E. coli
T2 sequence (H1XW48 19-558): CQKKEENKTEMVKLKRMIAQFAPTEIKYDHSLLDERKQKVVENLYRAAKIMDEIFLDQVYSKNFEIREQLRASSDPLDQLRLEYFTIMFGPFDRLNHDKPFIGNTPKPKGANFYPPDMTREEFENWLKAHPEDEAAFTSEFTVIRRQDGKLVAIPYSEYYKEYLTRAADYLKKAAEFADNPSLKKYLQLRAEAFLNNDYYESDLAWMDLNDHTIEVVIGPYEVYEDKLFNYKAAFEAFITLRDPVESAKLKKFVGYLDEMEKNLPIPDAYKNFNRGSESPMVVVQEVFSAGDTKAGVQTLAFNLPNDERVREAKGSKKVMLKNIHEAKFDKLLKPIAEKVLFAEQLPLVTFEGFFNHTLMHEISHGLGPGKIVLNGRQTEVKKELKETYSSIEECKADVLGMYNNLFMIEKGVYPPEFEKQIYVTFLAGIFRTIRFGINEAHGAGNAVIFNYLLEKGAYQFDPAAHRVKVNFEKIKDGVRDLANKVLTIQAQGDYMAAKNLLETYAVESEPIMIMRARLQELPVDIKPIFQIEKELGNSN
The assay is classed as biochemical. As to the method:
(§1) The Km values for hydrolysis of fluorogenic substrate Arg2-2NA were determined at pH 7.4 (20 mM Tris–HCl buffer) and at 25 °C, from the initial reaction rates as previously described.[26]
(§2) Enzyme inhibition studies with tynorphin were performed using the Arg2-2NA as a substrate, according to Baršun et al.[36] The inhibition constant, Ki, was calculated according to the equation:1 Ki = i/(v0/vi − 1)·Km/(Km + s)where v0 and vi are the initial hydrolysis rates of Arg2-2NA (given in concentration s) catalyzed by DPP III in the absence and presence of inhibitor concentration (i), and Km is the Michaelis constant.

Another assay has as its target T3, yDPP III (Saccharomyces cerevisiae, UniProt Q08225).
T3 construct: His6 (C); made in house; host or cells: E. coli
T3 sequence (Q08225 1-711): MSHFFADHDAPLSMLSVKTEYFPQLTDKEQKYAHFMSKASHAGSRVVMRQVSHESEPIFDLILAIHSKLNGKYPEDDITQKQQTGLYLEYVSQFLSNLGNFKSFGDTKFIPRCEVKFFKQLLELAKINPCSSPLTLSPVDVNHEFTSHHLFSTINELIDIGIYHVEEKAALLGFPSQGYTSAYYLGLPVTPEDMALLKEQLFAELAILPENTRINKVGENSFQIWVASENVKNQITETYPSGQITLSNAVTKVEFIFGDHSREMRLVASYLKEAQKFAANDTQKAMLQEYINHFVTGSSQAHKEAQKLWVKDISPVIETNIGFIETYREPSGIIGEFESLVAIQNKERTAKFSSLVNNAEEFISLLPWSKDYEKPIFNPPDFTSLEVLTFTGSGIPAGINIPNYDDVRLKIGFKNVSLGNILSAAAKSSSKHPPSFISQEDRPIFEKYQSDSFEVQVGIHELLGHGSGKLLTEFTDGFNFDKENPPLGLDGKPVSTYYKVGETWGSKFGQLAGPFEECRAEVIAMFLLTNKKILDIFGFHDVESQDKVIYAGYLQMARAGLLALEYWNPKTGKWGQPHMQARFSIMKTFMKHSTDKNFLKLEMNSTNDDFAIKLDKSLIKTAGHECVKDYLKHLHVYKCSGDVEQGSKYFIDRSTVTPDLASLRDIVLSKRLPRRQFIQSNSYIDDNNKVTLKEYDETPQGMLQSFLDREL
The assay is classed as biochemical, yeast (Saccharomyces cerevisiae). As to the method:
as §1, §2

Residues, ends and D or L forms follow the SMILES beside them.

T1 sequence (Q8A6N1 entry or part of it, change not shown): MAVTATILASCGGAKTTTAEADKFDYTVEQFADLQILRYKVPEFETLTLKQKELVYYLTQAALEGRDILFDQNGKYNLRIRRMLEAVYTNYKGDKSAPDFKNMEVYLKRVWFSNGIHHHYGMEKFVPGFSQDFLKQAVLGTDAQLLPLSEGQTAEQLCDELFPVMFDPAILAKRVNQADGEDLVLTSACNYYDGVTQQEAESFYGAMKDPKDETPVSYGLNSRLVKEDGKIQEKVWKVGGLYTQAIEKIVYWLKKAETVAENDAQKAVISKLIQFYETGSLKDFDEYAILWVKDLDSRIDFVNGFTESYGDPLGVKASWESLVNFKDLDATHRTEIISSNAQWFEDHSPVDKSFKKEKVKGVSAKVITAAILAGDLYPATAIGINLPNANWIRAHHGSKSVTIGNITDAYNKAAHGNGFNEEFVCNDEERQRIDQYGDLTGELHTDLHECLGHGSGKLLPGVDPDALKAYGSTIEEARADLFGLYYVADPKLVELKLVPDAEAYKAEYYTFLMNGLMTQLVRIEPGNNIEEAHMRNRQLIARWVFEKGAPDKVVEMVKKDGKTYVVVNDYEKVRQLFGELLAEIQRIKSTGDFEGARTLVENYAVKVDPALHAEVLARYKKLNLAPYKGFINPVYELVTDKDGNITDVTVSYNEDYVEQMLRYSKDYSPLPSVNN

As a reminder, the Ki is the equilibrium dissociation constant of an inhibitor or competing ligand from its target. For the compound `CC(C)[C@H](N)C(=O)N[C@H](C(=O)N[C@@H](Cc1ccc(O)cc1)C(=O)N1CCC[C@H]1C(=O)N[C@@H](Cc1c[nH]c2ccccc12)C(=O)O)C(C)C` [tynorphin] (H-VVYPW-OH), the Ki at BtDPP III came out at 0.98 µM; on CaDPP III, 16.8 µM; at yDPP III, 0.47 µM.

Values taken from paper PMC9079729, “Conservation of the conformational dynamics and ligand binding within M49 enzyme family” (RSC Advances, 2018).
